Laboratory results as given in PubChem BioAssay AID2060882 (Molecular Pharmacology Branch, DTP, NCI, 2025).
Values joined by “and” are separate entries in the source; they are usually repeats but may differ in a detail not shown here. Equal entries are not always repeated.

Test system: 898857-211-R-J1-PDC complex spheroids, growth % test/control
Test: Anticancer human tumor 898857-211-R-J1-PDC patient-derived melanoma cell line growth inhibition [RAS]
Conditions: for viability, T/C: stronger effect = lower value; active = viability on the fitted dose curve at most 10% of control; inactive = the rest
Summary of the method: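 Agents were tested in combination matrices in half-log decrements from a top concentration at or near clinical Cmax (10 microM if undetermined). Targets were multi-cell spheroids of tumour lines plus HUVEC and MSC stromal cells.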

[1] = curve of first compound, second compound 0.00316 µM
[2] = curve of first compound, second compound 0.01 µM
[3] = curve of first compound, second compound 0.0316 µM
[4] = curve of first compound, second compound 0.1 µM
[5] = curve of first compound, second compound 0.316 µM
[6] = curve of first compound, second compound 1 µM
[7] = second compound 0.00316 µM, first compound 0.00316 µM
[8] = second compound 0.00316 µM, first compound 0.01 µM
[9] = second compound 0.00316 µM, first compound 0.0316 µM
[10] = second compound 0.00316 µM, first compound 0.1 µM
[11] = second compound 0.01 µM, first compound 0.00316 µM
[12] = second compound 0.01 µM, first compound 0.01 µM
[13] = second compound 0.01 µM, first compound 0.0316 µM
[14] = second compound 0.01 µM, first compound 0.1 µM
[15] = second compound 0.0316 µM, first compound 0.00316 µM
[16] = second compound 0.0316 µM, first compound 0.01 µM
[17] = second compound 0.0316 µM, first compound 0.0316 µM
[18] = second compound 0.0316 µM, first compound 0.1 µM
[19] = second compound 0.1 µM, first compound 0.00316 µM
[20] = second compound 0.1 µM, first compound 0.01 µM
[21] = second compound 0.1 µM, first compound 0.0316 µM
[22] = second compound 0.1 µM, first compound 0.1 µM
[23] = second compound 0.316 µM, first compound 0.00316 µM
[24] = second compound 0.316 µM, first compound 0.01 µM
[25] = second compound 0.316 µM, first compound 0.0316 µM
[26] = second compound 0.316 µM, first compound 0.1 µM
[27] = second compound 1 µM, first compound 0.00316 µM
[28] = second compound 1 µM, first compound 0.01 µM
[29] = second compound 1 µM, first compound 0.0316 µM
[30] = second compound 1 µM, first compound 0.1 µM
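Also: spheroids exposed to compound for seven days before readout.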
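For viability, T/C in this document: 100% = DMSO vehicle control wells.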

C[C@@H](NC(=O)c1ncnc(N)c1Cl)c1ncc(C(=O)Nc2cc(C(F)(F)F)c(Cl)cn2)s1 + CCn1c(-c2cc(N3CCN(C)CC3)cnc2C(C)OC)c2c3cc(ccc31)-c1csc(n1)CC(NC(=O)C1CC1C)C(=O)N1CCCC(N1)C(=O)OCC(C)(C)C2
1150 nM: IC50 (curve of first compound, second compound 0.3 µM)
1690 nM: IC50 (curve of first compound, second compound 0.000949 µM)
inactive: viability, T/C (second compound 0.000949 µM, first compound 0.0316 µM) 131% | viability, T/C (second compound 0.000949 µM, first compound 0.1 µM) 98.4% | viability, T/C (second compound 0.000949 µM, first compound 0.316 µM) 85% | viability, T/C (second compound 0.000949 µM, first compound 1 µM) 59.8% | viability, T/C (second compound 0.000949 µM, first compound 3.16 µM) 38.7% | viability, T/C (second compound 0.000949 µM, first compound 10 µM) 20% | viability, T/C (second compound 0.003 µM, first compound 0.0316 µM) 106% | viability, T/C (second compound 0.003 µM, first compound 0.1 µM) 109% | viability, T/C (second compound 0.003 µM, first compound 0.316 µM) 71% | viability, T/C (second compound 0.003 µM, first compound 1 µM) 55.2% | viability, T/C (second compound 0.003 µM, first compound 3.16 µM) 40.7% | viability, T/C (second compound 0.003 µM, first compound 10 µM) 22% | viability, T/C (second compound 0.00949 µM, first compound 0.0316 µM) 107% | viability, T/C (second compound 0.00949 µM, first compound 0.1 µM) 99.5% | viability, T/C (second compound 0.00949 µM, first compound 0.316 µM) 83.6% | viability, T/C (second compound 0.00949 µM, first compound 1 µM) 53.7% | viability, T/C (second compound 0.00949 µM, first compound 3.16 µM) 33.9% | viability, T/C (second compound 0.00949 µM, first compound 10 µM) 21.2% | viability, T/C (second compound 0.03 µM, first compound 0.0316 µM) 107% | viability, T/C (second compound 0.03 µM, first compound 0.1 µM) 99.3% | viability, T/C (second compound 0.03 µM, first compound 0.316 µM) 78.8% | viability, T/C (second compound 0.03 µM, first compound 1 µM) 50.3% | viability, T/C (second compound 0.03 µM, first compound 3.16 µM) 33.4% | viability, T/C (second compound 0.03 µM, first compound 10 µM) 21.7% | viability, T/C (second compound 0.0949 µM, first compound 0.0316 µM) 121% | viability, T/C (second compound 0.0949 µM, first compound 0.1 µM) 106% | viability, T/C (second compound 0.0949 µM, first compound 0.316 µM) 72.6% | viability, T/C (second compound 0.0949 µM, first compound 1 µM) 52.2% | viability, T/C (second compound 0.0949 µM, first compound 3.16 µM) 38% | viability, T/C (second compound 0.0949 µM, first compound 10 µM) 19.6% | viability, T/C (second compound 0.3 µM, first compound 0.0316 µM) 108% | viability, T/C (second compound 0.3 µM, first compound 0.1 µM) 87.5% | viability, T/C (second compound 0.3 µM, first compound 0.316 µM) 65.9% | viability, T/C (second compound 0.3 µM, first compound 1 µM) 56.8% | viability, T/C (second compound 0.3 µM, first compound 3.16 µM) 33.6% | viability, T/C (second compound 0.3 µM, first compound 10 µM) 16.9%
1360 nM: IC50 (curve of first compound, second compound 0.0949 µM)
1340 nM: IC50 (curve of first compound, second compound 0.003 µM)
1090 nM: IC50 (curve of first compound, second compound 0.03 µM)
1300 nM: IC50 (curve of first compound, second compound 0.00949 µM)

CCC(CC)c1cc(NC2CCC(N)C2)n2nccc2n1 (stereo not given)
active: viability, T/C (compound 3.16 µM) 1.39% [middle of 4 runs] | viability, T/C (compound 10 µM) 0.28% [middle of 4 runs]
1.04 µM [middle of 4 runs]: IC50 (curve of compound)
inactive: viability, T/C (compound 0.0316 µM) 113% [middle of 4 runs] | viability, T/C (compound 0.1 µM) 99.5% [middle of 4 runs] | viability, T/C (compound 0.316 µM) 97.5% [middle of 4 runs]

Nc1ccn(C2OC(CO)C(O)C2(F)F)c(=O)n1 (stereo not given) + C=CC(=O)N1CCN(c2nc(OCC3CCCN3C)nc3c(F)c(-c4nc(N)cc(C)c4C(F)(F)F)c(Cl)cc23)C(C)C1
7.89 nM: IC50 [1]
7.24 nM: IC50 [2]
6.89 nM: IC50 [6]
7.3 nM: IC50 [5]
active: viability, T/C [9] 6.39% | viability, T/C [10] 4.85% | viability, T/C (second compound 0.00316 µM, first compound 0.316 µM) 5.1% | viability, T/C (second compound 0.00316 µM, first compound 1 µM) 4.69% | viability, T/C [13] 5.64% | viability, T/C [14] 4.72% | viability, T/C (second compound 0.01 µM, first compound 0.316 µM) 4.8% | viability, T/C (second compound 0.01 µM, first compound 1 µM) 4.83% | viability, T/C [17] 7.07% | viability, T/C [18] 5.22% | viability, T/C (second compound 0.0316 µM, first compound 0.316 µM) 4.65% | viability, T/C (second compound 0.0316 µM, first compound 1 µM) 4.83% | viability, T/C [21] 6.93% | viability, T/C [22] 4.35% | viability, T/C (second compound 0.1 µM, first compound 0.316 µM) 4.72% | viability, T/C (second compound 0.1 µM, first compound 1 µM) 4.89% | viability, T/C [25] 6.17% | viability, T/C [26] 5.08% | viability, T/C (second compound 0.316 µM, first compound 0.316 µM) 5.71% | viability, T/C (second compound 0.316 µM, first compound 1 µM) 4.45% | viability, T/C [29] 8.63% | viability, T/C [30] 5.29% | viability, T/C (second compound 1 µM, first compound 0.316 µM) 6.52% | viability, T/C (second compound 1 µM, first compound 1 µM) 5.69%
inactive: viability, T/C [7] 110% | viability, T/C [8] 34.5% | viability, T/C [11] 107% | viability, T/C [12] 27.9% | viability, T/C [15] 103% | viability, T/C [16] 27.9% | viability, T/C [19] 96% | viability, T/C [20] 29.2% | viability, T/C [23] 103% | viability, T/C [24] 30.1% | viability, T/C [27] 104% | viability, T/C [28] 24%
7.1 nM: IC50 [3]
6.99 nM: IC50 [4]

CC1(O)CCCC1n1c(=O)c(C(F)F)cc2cnc(NC3CCN(S(C)(=O)=O)CC3)nc21 (stereo not given)
inactive: viability, T/C (compound 0.0316 µM) 93.3% and 97.5% and 83.3% | viability, T/C (compound 0.1 µM) 58.4% and 53.8% and 49.8% | viability, T/C (compound 0.316 µM) 42.2% (2×) and 39.9% | viability, T/C (compound 1 µM) 45.2% and 35.5% and 38.7% | viability, T/C (compound 3.16 µM) 41% and 30.3% and 45.7% | viability, T/C (compound 10 µM) 21.5% and 15.1% and 17.7%
232 nM and 169 nM and 149 nM: IC50 (curve of compound)

CC(C)n1nc(-c2ccc3oc(N)nc3c2)c2c(N)ncnc21 + C=CC(=O)N1CCN(c2nc(OCC3CCCN3C)nc3c(F)c(-c4nc(N)cc(C)c4C(F)(F)F)c(Cl)cc23)C(C)C1
26.9 nM: IC50 [3]
37.9 nM: IC50 [6]
33.6 nM: IC50 [2]
35 nM: IC50 [4]
28.8 nM: IC50 [1]
inactive: viability, T/C (second compound 0.00316 µM, first compound 0.000316 µM) 103% | viability, T/C (second compound 0.00316 µM, first compound 0.001 µM) 96.3% | viability, T/C [7] 99.6% | viability, T/C [8] 75.9% | viability, T/C [9] 48.5% | viability, T/C [10] 19.9% | viability, T/C (second compound 0.01 µM, first compound 0.000316 µM) 107% | viability, T/C (second compound 0.01 µM, first compound 0.001 µM) 95.1% | viability, T/C [11] 92.1% | viability, T/C [12] 77.9% | viability, T/C [13] 49.9% | viability, T/C [14] 21.3% | viability, T/C (second compound 0.0316 µM, first compound 0.000316 µM) 108% | viability, T/C (second compound 0.0316 µM, first compound 0.001 µM) 99.9% | viability, T/C [15] 91.7% | viability, T/C [16] 77.5% | viability, T/C [17] 44.2% | viability, T/C [18] 20.4% | viability, T/C (second compound 0.1 µM, first compound 0.000316 µM) 104% | viability, T/C (second compound 0.1 µM, first compound 0.001 µM) 102% | viability, T/C [19] 97.4% | viability, T/C [20] 85% | viability, T/C [21] 52.7% | viability, T/C [22] 19.8% | viability, T/C (second compound 0.316 µM, first compound 0.000316 µM) 116% | viability, T/C (second compound 0.316 µM, first compound 0.001 µM) 103% | viability, T/C [23] 109% | viability, T/C [24] 89.3% | viability, T/C [25] 52.4% | viability, T/C [26] 20.8% | viability, T/C (second compound 1 µM, first compound 0.000316 µM) 122% | viability, T/C (second compound 1 µM, first compound 0.001 µM) 115% | viability, T/C [27] 111% | viability, T/C [28] 84.5% | viability, T/C [29] 56% | viability, T/C [30] 22.7%
34.5 nM: IC50 [5]

O=C(c1ccc(F)c(F)c1Nc1ccc(I)cc1F)N1CC(O)([C@@H]2CCCCN2)C1
inactive: viability, T/C (compound 0.00316 µM) 56.5% [middle of 4 runs] | viability, T/C (compound 0.01 µM) 40.4% (2×) and 26.7% and 33.1% | viability, T/C (compound 0.0316 µM) 28.9% [middle of 4 runs] | viability, T/C (compound 0.1 µM) 20.3% [middle of 4 runs] | viability, T/C (compound 0.316 µM) 18.5% [middle of 4 runs] | viability, T/C (compound 1 µM) 13.4% [middle of 4 runs]
